Measurements published in PMC5218480 (PLoS ONE, 2017).

Test system: MV-4-11 cells
Experiment: Gene expression microarray analysis (Affymetrix PrimeView) and GSEA
Assay type: cell-based, human
Conditions: gene C12orf56, chromosome 12 open reading frame 56; Azacitidine 1 mM; LIST F

Nc1ncn([C@@H]2O[C@H](CO)[C@@H](O)[C@H]2O)c(=O)n1 [azacitidine]
RFU, C12orf56 (ProbeSet 11735607_a_at): 185.59 RFU
